Key:
[1] = molecular target: T1, adenosine A2A receptor (hA2AR) (Homo sapiens, UniProt P29274); experiment: radioligand displacement with [3H]ZM241385; type: binding
T1 construct: gene ADORA2A; membrane homogenates of stably transfected CHO-K1 cells

[2] = molecular target: T2, adenosine A1 receptor (hA1R) (Homo sapiens, UniProt P30542); experiment: radioligand displacement with [3H]DPCPX; type: binding
T2 construct: gene ADORA1; membrane homogenates of stably transfected CHO-K1 cells
T2 sequence (P30542 1-326): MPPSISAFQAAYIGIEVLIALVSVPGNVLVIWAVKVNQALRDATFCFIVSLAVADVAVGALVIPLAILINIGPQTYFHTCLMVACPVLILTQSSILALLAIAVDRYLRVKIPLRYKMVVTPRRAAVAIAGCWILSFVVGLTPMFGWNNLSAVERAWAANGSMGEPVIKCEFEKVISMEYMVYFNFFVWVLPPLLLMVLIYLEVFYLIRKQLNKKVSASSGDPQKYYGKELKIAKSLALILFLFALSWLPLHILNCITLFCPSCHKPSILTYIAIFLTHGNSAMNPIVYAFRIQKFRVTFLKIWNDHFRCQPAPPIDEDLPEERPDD

T1 sequence (P29274 whole entry): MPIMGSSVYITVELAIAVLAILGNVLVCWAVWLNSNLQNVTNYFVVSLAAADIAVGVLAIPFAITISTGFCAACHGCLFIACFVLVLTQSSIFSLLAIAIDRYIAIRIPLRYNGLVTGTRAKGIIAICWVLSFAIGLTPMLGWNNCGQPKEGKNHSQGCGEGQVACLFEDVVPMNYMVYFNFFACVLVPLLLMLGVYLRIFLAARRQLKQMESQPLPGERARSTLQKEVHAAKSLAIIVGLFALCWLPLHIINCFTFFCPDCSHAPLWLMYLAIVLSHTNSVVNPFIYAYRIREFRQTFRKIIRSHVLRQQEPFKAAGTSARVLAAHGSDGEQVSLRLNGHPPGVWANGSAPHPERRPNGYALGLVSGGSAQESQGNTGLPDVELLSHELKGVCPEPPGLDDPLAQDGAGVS

`Nc1nc2c(cnn2CCCc2ccc(OCCF)cc2)c2nc(-c3ccco3)nn12` [FESCH] showed a Ki [1] of 0.6 ± 0.1 nM and a Ki [2] of 203 ± 40 nM.
